This passage reports TGI and GI50 results from PubChem BioAssay (NCI).

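Compound exposure: 48 hours, 5 concentrations, 96-well plates. The concentration for 50% growth inhibition is given as GI50. TGI: concentration producing complete growth inhibition.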

Common to all, as to experiment: inhibition of tumour cell growth, NCI panel, 48 h
The test system of test [1] is ACHN renal.
The test system of test [2] is HT29 colon.
Test [3] concerns NCI-H522 lung.
Test [4] deals with OVCAR-5 ovarian.
The subject of test [5] is RPMI-8226 leukemia.
Test [6] concerns U251 CNS.
Test [7] relates to UO-31 renal.
Test [8] relates to T-47D breast.
The subject of test [9] is HOP-92 NSCLC.

Regarding `CC(C)(C)N=C1CC(C)(C)c2ccccc2C(=Nc2ccccc2)S1`, the TGI in test [1] is more than 100 µM; in test [2], more than 100 µM; in [3] it was 46.7 µM; in test [4] it was more than 100 µM; in [5], 41.5 µM; in [6], more than 100 µM. For the same compound, the TGI in [7] was more than 100 µM.
On to `O=C(CC(O)(C(F)(F)F)C(F)(F)F)C(CCCl)C(O)(C(F)(F)F)C(F)(F)F` (configuration not stated), for which the TGI in [1] is more than 100 µM; in test [2] it was 91.5 µM; in [3] it was more than 100 µM; in [4], more than 100 µM; in test [5] it was 61.1 µM; in [8] it was 78 µM. Also, the results for the TGI in test [6] and in [7] were more than 100 µM and 73.3 µM, respectively.
Take `OC1CCCC1C(O)(C(F)(F)F)C(F)(F)F` (configuration not stated): the TGI in test [1], in test [9], in [2], in [3], in test [4] and in test [5] was more than 100 µM in each case. The TGI in test [8], in test [6] and in test [7] was more than 100 µM each time.
With `COc1cccc(NC(=O)CSc2nnc(-c3ccc(N=Cc4ccc(Cl)cc4)cc3)o2)c1`, the TGI in test [1] was determined as 30.3 µM; in test [2], 29.8 µM; in test [3], 32.9 µM; in [5], 65.1 µM; in test [6] it was 30.8 µM; in test [7], 32.7 µM.
Consider `CN1CCn2c(Br)ccc2C1=O`, for which the TGI in test [1], in [2], in [3], in [5], in [6] and in test [7] was more than 100 µM throughout.
For the compound `CC1(C)O[C@@H](CO)[C@H]([C@@]23OC[C@H]4OC(C)(C)OC4[C@@H]2OC(C)(C)O3)O1` (some centres not stated), the TGI in test [1], in [9], in test [2], in [3], in test [4] and in test [5] was more than 100 µM each time. Further, the TGI in [8], in test [6] and in [7] was more than 100 µM each time.
Consider `O=S1(=O)NNC(=NCc2ccc(Cl)cc2)c2ccccc21`, for which the TGI in test [1], in test [9], in [2], in test [4], in test [5] and in test [6] was more than 100 µM each time. The same compound registered a TGI in test [7] of more than 100 µM.
For the compound `COc1cc([C@@H]2c3cc4c(cc3[C@@H](NC(=O)c3ccc(N)cc3)C3COC(=O)[C@@H]32)OCO4)cc(OC)c1O` (some centres not stated), the TGI in test [1] was 4.9 µM; in test [9] it was more than 100 µM; in [2] it was 19.4 µM; in test [3] it was 9.23 µM; in test [4] it was 34.5 µM; in test [5], 20.2 µM. Moreover, the TGI in test [6] came to 3.5 µM; in test [7], 31.1 µM.
For `O=c1[nH]c(=O)n(C2OC(COP(=O)(O)OP(=O)(O)O)C(O)C2O)cc1F` (configuration not stated), the TGI is more than 44.7 µM in [1]; more than 50 µM in test [9]; more than 50 µM in [2]; 34.3 µM in test [3]; more than 44.1 µM in [4]; more than 50 µM in [5]. The TGI in test [6] was more than 25.2 µM; in test [7], 20.4 µM.
On to `CCCCc1c2c(nc3c1CCc1cc4c(nc1-3)-c1nc3c(c(CCCC)c1CC4)CCC/C3=C\c1ccccc1)/C(=C/c1ccccc1)CCC2`, for which the TGI in [9], in test [2], in test [3], in test [4], in test [5] and in test [6] was more than 100 µM in each case. The same compound gave a TGI in test [7] of more than 100 µM.
On to `CC1=CC(O)C(O)C2(C)C1CC1OC(=O)C(O)C3C(C)C(O)C4(O)OCC13C42` (configuration not stated), for which the TGI is 14.6 µM in [9]; 159 µM in test [2]; 214 µM in test [3]; more than 454 µM in test [4]; 108 µM in test [5]; 475 µM in test [6]. The compound also had a TGI in test [7] of 518 µM.
With `Cc1cccc(NC(=O)C(=O)C2C(=O)NC(=O)NC2=O)c1C`, the TGI in [1], in test [9], in test [2], in [3], in test [4] and in [5] was more than 100 µM each time. Besides, the TGI in [6] and in test [7] was more than 100 µM throughout.
Consider `CC(=O)/C=C/C=C(\C)CC/C=C(\C)CC(C)C`, for which the TGI was more than 100 µM in test [1]; 27.4 µM in test [9]; more than 100 µM in test [2]; 42.6 µM in test [3]; more than 100 µM in [4]; 38.4 µM in test [5]. The TGI is 46 µM in [8], 87.7 µM in test [6] and more than 100 µM in test [7].
Turning to `N#Cc1c(NC(=O)c2ccccc2)sc2c1CCC(=O)C2`, the GI50 was 0.906 µM in test [1]; 0.821 µM in test [9]; 0.747 µM in test [2]; 0.358 µM in test [3]; 1.25 µM in [4]; 0.305 µM in test [5]. In addition, the figures for the GI50 in test [6] and in test [7] were 1.52 µM and 1.05 µM, respectively. Moreover, the TGI was 2.3 µM in test [1]; 2.72 µM in test [9]; more than 100 µM in test [2]; 4.66 µM in [3]; 4.77 µM in test [4]; 1.32 µM in [5]. The results for the TGI in test [6] and in test [7] were 16.9 µM and 2.24 µM, respectively.
Turning to `O=C(N/N=C(/c1nc2ccc(Cl)cc2[nH]c1=O)C(O)c1ccc(Cl)cc1Cl)c1ccncc1` (configuration not stated), the TGI in test [1], in test [9], in [2], in test [4], in [5] and in [6] was more than 100 µM in each case. Also, the TGI in test [7] was more than 100 µM.
Consider `COc1cc(C2C3=C(CCC3=O)Oc3cc4c(cc32)OCO4)cc(OC)c1OC` (configuration not stated), for which the TGI in test [1] is 62.3 µM; in [9] it was 6.47 µM; in [2] it was more than 100 µM; in [4] it was more than 100 µM; in test [6], more than 100 µM; in [7] it was more than 100 µM.
Turning to `COc1ccc(/C=C2\Cc3ccccc3C2=O)cc1OC`, the TGI in [1], in test [2], in test [3], in test [4], in test [5] and in test [6] was more than 100 µM each time. In test [7], this compound gave a TGI of more than 100 µM.
For the compound `NC(Cc1cc(I)c(O)c(I)c1)C(=O)O` (configuration not stated), the TGI in [9] is more than 107 µM; in test [2], more than 393 µM; in [3], 130 µM; in test [4] it was more than 500 µM; in test [5], more than 500 µM; in test [6] it was more than 500 µM. In addition, the TGI in test [7] was more than 500 µM.
In the case of `CN(C)CCOC(=O)COc1ccc(Cl)cc1`, the TGI in test [1], in test [9], in test [2], in test [3], in test [4] and in test [8] was more than 100 µM each time. In addition, the TGI in [6] and in test [7] was more than 100 µM each time.
Take `Cc1nc(C)c(C(=O)Nc2cccc3c2C(=O)NC3=O)cc1C(=O)Nc1cccc2c1C(=O)NC2=O`: the TGI in test [1], in [9], in [2], in test [3], in [4] and in test [5] was more than 100 µM each time. Moreover, the TGI in test [6] and in test [7] was more than 100 µM each time.
Turning to `CC1(O)C=CC2CCC1C2O` (configuration not stated), the TGI was more than 100 µM in test [1]; more than 100 µM in test [2]; more than 100 µM in test [3]; more than 100 µM in test [4]; 53.5 µM in test [5]; more than 100 µM in test [6]. This compound displayed a TGI in test [7] of more than 100 µM.
For the compound `CN=C(Nn1cnnc1)OC`, the TGI in [1], in [9], in test [2], in test [3], in test [4] and in test [5] was more than 100 µM throughout. Further, the TGI in test [8], in [6] and in test [7] was more than 100 µM in each case.
In the case of `C#CCNC(Cc1cnc[nH]1)C(=O)O` (configuration not stated), the TGI in [1], in test [9], in [2], in test [3], in [4] and in [5] was more than 100 µM throughout. Moreover, the TGI in test [8], in test [6] and in [7] was more than 100 µM throughout.
Regarding `Cc1csc2c1C(=O)c1ccsc1C2=O`, the TGI in test [1] came out at 10.7 µM; in test [9], 12.5 µM; in [2], 7.33 µM; in [3] it was 5.16 µM; in [4], 3.46 µM; in test [5] it was 20.1 µM. Also, the TGI in test [8] is 4.99 µM; in test [6], 13.6 µM; in test [7], 8.85 µM.
